We go through nine compounds from ChEMBL document CHEMBL1124113, “Melanin concentrating hormone analogues: contraction of the cyclic structure. 1. Agonist activity” (J Med Chem, 1988).

Test [1] deals with Melanin-concentrating hormone receptor (Synbranchus marmoratus). Briefly: Melanin concentrating hormone(MCH) activity, causes melanosome aggregation within integumental fish melanocytes and lightening of the skin; d = Inactive at 10e-6 M.
The test system of test [2] is melanocortin receptor (frog). Briefly: Melanosome dispersion (skin darkening) within melanocytes (Alpha-MSH-like activity), measured on tetrapod skin; Inactive at 10e-5.
The test system of test [3] is melanocortin receptor (frog). Briefly: Melanosome dispersion (skin darkening) within melanocytes (Alpha-MSH-like activity), measured on tetrapod skin; e = Inactive at 10e-5.
In test [4] the test system is Melanin-concentrating hormone receptor (Synbranchus marmoratus). Briefly: Melanin concentrating hormone(MCH) activity, causes melanosome aggregation within integumental fish melanocytes and lightening of the skin; d = Inactive at 10e-6 M. The source holds these as a separate data set.
For test [5], the system named is melanocortin receptor (frog). Briefly: Melanosome dispersion (skin darkening) within melanocytes (Alpha-MSH-like activity), measured on tetrapod skin; e =Inactive at 10e-5.

Bridge positions count the residues as written; N and C are the ends. Peptide text beside a SMILES is read from it.

Turning to `CSCC[C@H](NC(=O)[C@H](C)NC(=O)[C@H](CCCN=C(N)N)NC(=O)[C@H](CCSC)NC(=O)[C@@H](NC(=O)[C@@H](N)CC(=O)O)[C@@H](C)O)C(=O)N[C@H](C(=O)N[C@H]1CSSC[C@@H](C(=O)N[C@@H](Cc2c[nH]c3ccccc23)C(=O)N[C@@H](CCC(=O)O)C(=O)N[C@H](C(=O)O)C(C)C)NC(=O)[C@@H]2CCCN2C(=O)[C@H](CCCN=C(N)N)NC(=O)[C@H](Cc2ccc(O)cc2)NC(=O)[C@H](C(C)C)NC(=O)[C@H](CCCN=C(N)N)NC1=O)C(C)C` (H-DTMRAMVCRVYRPCWEV-OH; disulfide 8-14), the EC50 entry in test [1] is listed as “Not Active”.

With `CC(C)[C@H](NC(=O)[C@H](CCC(=O)O)NC(=O)[C@H](Cc1c[nH]c2ccccc12)NC(=O)[C@@H]1CSSC[C@H](N)C(=O)N[C@@H](CCCN=C(N)N)C(=O)N[C@@H](C(C)C)C(=O)N[C@@H](Cc2ccc(O)cc2)C(=O)N[C@@H](CCCN=C(N)N)C(=O)N2CCC[C@H]2C(=O)N1)C(=O)O` (H-CRVYRPCWEV-OH; disulfide 1-7), the EC50 entry in test [2] was “Not Active”.

As to `CSCC[C@H](NC(=O)[C@H](C)N)C(=O)N[C@H](C(=O)N[C@H]1CSSC[C@@H](C(=O)N[C@@H](Cc2c[nH]c3ccccc23)C(=O)N[C@@H](CCC(=O)O)C(=O)N[C@H](C(=O)O)C(C)C)NC(=O)[C@@H]2CCCN2C(=O)[C@H](CCCN=C(N)N)NC(=O)[C@H](Cc2ccc(O)cc2)NC(=O)[C@H](C(C)C)NC(=O)[C@H](CCCN=C(N)N)NC1=O)C(C)C` (H-AMVCRVYRPCWEV-OH; disulfide 4-10), the EC50 entry in test [3] is given as “Not Active”.

For `CC(C)[C@H](NC(=O)[C@H](CCC(=O)O)NC(=O)[C@H](Cc1c[nH]c2ccccc12)NC(=O)[C@@H]1CSSC[C@H](N)C(=O)N[C@@H](Cc2ccc(O)cc2)C(=O)N[C@@H](CCCN=C(N)N)C(=O)N2CCC[C@H]2C(=O)N1)C(=O)O` (H-CYRPCWEV-OH; disulfide 1-5), the EC50 entry in test [2] is recorded as “Not Active”.

Take `CC(C)[C@H](NC(=O)[C@H](CCC(=O)O)NC(=O)[C@H](Cc1c[nH]c2ccccc12)NC(=O)[C@@H]1CSSC[C@H](N)C(=O)NCC(=O)N[C@@H](CCCN=C(N)N)C(=O)N[C@@H](C(C)C)C(=O)N[C@@H](Cc2ccc(O)cc2)C(=O)N[C@@H](CCCN=C(N)N)C(=O)N2CCC[C@H]2C(=O)N1)C(=O)O` (H-CGRVYRPCWEV-OH; disulfide 1-8): the EC50 entry in test [1] is listed as “Not Active”.

On to `CSCC[C@H](NC(=O)[C@H](C)NC(=O)[C@H](CCCN=C(N)N)NC(=O)[C@H](CCSC)NC(=O)[C@@H](NC(=O)[C@@H](N)CC(=O)O)[C@@H](C)O)C(=O)N[C@H](C(=O)NCC(=O)N[C@@H](CCCN=C(N)N)C(=O)N[C@H]1CSSC[C@@H](C(=O)N[C@@H](Cc2c[nH]c3ccccc23)C(=O)N[C@@H](CCC(=O)O)C(=O)N[C@H](C(=O)O)C(C)C)NC(=O)[C@@H]2CCCN2C(=O)[C@H](CCCN=C(N)N)NC(=O)[C@H](Cc2ccc(O)cc2)NC1=O)C(C)C` (H-DTMRAMVGRCYRPCWEV-OH; disulfide 10-14), for which the EC50 result in test [4] is reported as “Not Active”.

For the compound `CSCC[C@H](NC(=O)[C@H](C)N)C(=O)N[C@H]1CSSC[C@@H](C(=O)N[C@@H](Cc2c[nH]c3ccccc23)C(=O)N[C@@H](CCC(=O)O)C(=O)N[C@H](C(=O)O)C(C)C)NC(=O)[C@@H]2CCCN2C(=O)[C@H](CCCN=C(N)N)NC(=O)[C@H](Cc2ccc(O)cc2)NC(=O)[C@H](C(C)C)NC(=O)[C@H](CCCN=C(N)N)NC(=O)CNC1=O` (H-AMCGRVYRPCWEV-OH; disulfide 3-10), the EC50 entry in test [1] and in test [5] was “Not Active” each time.

With `CSCC[C@H](NC(=O)[C@H](C)N)C(=O)N[C@H](C(=O)NCC(=O)N[C@@H](CCCN=C(N)N)C(=O)N[C@H]1CSSC[C@@H](C(=O)N[C@@H](Cc2c[nH]c3ccccc23)C(=O)N[C@@H](CCC(=O)O)C(=O)N[C@H](C(=O)O)C(C)C)NC(=O)[C@@H]2CCCN2C(=O)[C@H](CCCN=C(N)N)NC(=O)[C@H](Cc2ccc(O)cc2)NC1=O)C(C)C` (H-AMVGRCYRPCWEV-OH; disulfide 6-10), the EC50 entry in test [1] was “Not Active”.

As to `CSCC[C@H](NC(=O)[C@H](C)NC(=O)[C@H](CCCN=C(N)N)NC(=O)[C@H](CCSC)NC(=O)[C@@H](NC(=O)[C@@H](N)CC(=O)O)[C@@H](C)O)C(=O)N[C@H]1CSSC[C@@H](C(=O)N[C@@H](Cc2c[nH]c3ccccc23)C(=O)N[C@@H](CCC(=O)O)C(=O)N[C@H](C(=O)O)C(C)C)NC(=O)[C@@H]2CCCN2C(=O)[C@H](CCCN=C(N)N)NC(=O)[C@H](Cc2ccc(O)cc2)NC(=O)[C@H](C(C)C)NC(=O)[C@H](CCCN=C(N)N)NC(=O)CNC1=O` (H-DTMRAMCGRVYRPCWEV-OH; disulfide 7-14), the EC50 entry in test [1] is given as “Not Active”.
